Measured values taken from BigSolDB 2.1.

Cc1onc(-c2c(Cl)cccc2Cl)c1C(=O)N[C@@H]1C(=O)N2[C@@H]1SC(C)(C)[C@@H]2C(=O)[O-].O.[Na+]
solubility (mole fraction)
Settings	288.15 K	293.15 K	298.15 K	303.15 K	308.15 K	313.15 K	318.15 K
in acetone	0.000605	0.000795	0.00101	0.00128	0.00161	0.00198	0.00244
in acetonitrile	0.000144	0.000155	0.000174	0.000184	0.000209	0.000221	0.000246
in ethanol	0.00146	0.00167	0.00187	0.00211	0.00237	0.00267	0.00292
in ethyl acetate	0.000548	0.000686	0.000843	0.001	0.00123	0.00149	0.00178
in isopropanol	0.000409	0.000524	0.000618	0.000683	0.000854	0.000958	0.00118
in methanol	0.0418	0.0476	0.0536	0.06	0.0657	0.0768	0.0853
